Measurements as given in the NIST ThermoML archive (doi:10.1016/j.jct.2015.10.016).
± gives the expanded uncertainty stated by the source.

Assays:
[1] = Molar enthalpy of transition or fusion; settings: Crystal; DSC
[2] = Crystal; DTA

Molar enthalpy of transition or fusion [1]: 11.2 ± 0.502 kcal/mol
Normal melting temperature [2]: 235.40 ± 1.1 °C
SMILES: O=C(NC[C@H]1CN(c2ccc(N3CCOCC3=O)cc2)C(=O)O1)c1ccc(Cl)s1 [Rivaroxaban]
